Literature values, collected in patent US5543414A, “Achiral amino acid acyl esters of ganciclovir and its derivatives” (priority 1994, dated 1996).
Where a name gives a salt, the structure may show the parent alone. Read-outs that look alike come from different tables or passages of the source. Values belong to the compound of their own block, whether it stands above or below them.

Experiments:
[1] = not given; remark: listed apart in the source
[2] = in vivo
[3] = system: viruses of the herpes family; details: e.g. herpes simplex, cytomegalovirus
[4] = not given; remark: listed apart in the source
[5] = system: epithelial and stromal herpes simplex keratitis and associated iritis; details: glycine ester: 1% eye drop formulation, rabbits; acyclovir: ointment
[6] = oral administration
[7] = not given; remark: listed apart in the source
[8] = system: herpes simplex virus type 1 and type 2 strains; details: primary rabbit kidney cell cultures
[9] = not given; remark: listed apart in the source

Compound: CC[C@H](N)C(=O)OCCOCn1cnc2c(=O)[nH]c(N)nc21
- amounts of the parent drug in the urine compared with acyclovir (rat, in vivo): greater amounts of the parent drug in the urine than acyclovir itself

Compound: CC(N)C(=O)OCCOCn1cnc2c(=O)[nH]c(N)nc21 (racemic) [D,L-alanyl]
- amounts of the parent drug in the urine compared with acyclovir (rat, in vivo): greater amounts of the parent drug in the urine than acyclovir itself

Compound: CC(C)C(N)C(=O)OCCOCn1cnc2c(=O)nc(N)[nH]c21 (racemic) [D,L-valyl]
- amounts of the parent drug in the urine compared with acyclovir (rat, in vivo): greater amounts of the parent drug in the urine than acyclovir itself

Compound: CCC(C)C(N)C(=O)OCCOCn1cnc2c(=O)[nH]c(N)nc21 (racemic) [DL-isoleucyl]
- amounts of the parent drug in the urine compared with acyclovir (rats): greater amounts of the parent drug in the urine than acyclovir itself

Compound: Nc1ncc2ncn(COCCO)c2n1 [6-deoxy-acyclovir]
- absorption and plasma levels of the parent drugs ([1]; oral administration, rats): efficient absorption from the gastro-intestinal tract and high plasma levels of the parent drugs
- conversion to parent drug [2]: readily converted in vivo by the action of enzymes

Compound: Nc1ncc2ncn(COC(CO)CO)c2n1 [6-deoxy-ganciclovir]
- absorption and plasma levels of the parent drugs ([1]; rat, in vivo, po): efficient absorption from the gastro-intestinal tract and high plasma levels of the parent drugs
- conversion to parent drug [2]: readily converted in vivo by the action of enzymes

Compound: C[C@H](N)C(=O)OCCOCn1cnc2c(=O)[nH]c(N)nc21 [L-alanyl]
- amounts of the parent drug in the urine compared with acyclovir (rat, in vivo): greater amounts of the parent drug in the urine than acyclovir itself

Compound: CC[C@H](C)[C@H](N)C(=O)OCCOCn1cnc2c(=O)[nH]c(N)nc21 [L-isoleucyl]
- amounts of the parent drug in the urine compared with acyclovir (rat, in vivo): greater amounts of the parent drug in the urine than acyclovir itself

Compound: CSCC[C@H](N)C(=O)OCCOCn1cnc2c(=O)[nH]c(N)nc21 [L-methionyl]
- amounts of the parent drug in the urine compared with acyclovir (rat, in vivo): greater amounts of the parent drug in the urine than acyclovir itself

Compound: Nc1nc2c(ncn2COCCOC(=O)[C@@H]2CCCN2)c(=O)[nH]1 [L-prolyl ester]
- amounts of the parent drug in the urine compared with acyclovir (rat, in vivo): greater amounts of the parent drug in the urine than acyclovir itself

Compound: CC(C)[C@H](N)C(=O)OCCOCn1cnc2c(=O)[nH]c(N)nc21 [L-valyl ester of acyclovir]
- amounts of the parent drug in the urine compared with acyclovir (rats): greater amounts of the parent drug in the urine than acyclovir itself
- ranking as prodrug of acyclovir (rats): the best prodrug of the esters investigated

- water solubility [4]: limited solubility in water
- urinary recovery of acyclovir (rat, in vivo, po): 19%
Compound: Nc1nc2c(ncn2COCCO)c(=O)[nH]1 [acyclovir, 2-(2-amino-1,6-dihydro-6-oxo-1,6-dihydro-purin-9-yl)methoxy-ethanol]
- antiviral activity [3]: good activity against herpes viruses such as herpes simplex
- efficacy in topical treatment of herpes simplex keratitis and iritis [5]: hardly effective in stromal disease or iritis

- more bioavailable than ganciclovir itself [6]: about 42%
Compound: CCC(=O)OCC(COC(=O)CC)OCn1cnc2c(=O)[nH]c(N)nc21 [dipropionate ester]

Compound: Nc1nc2c(ncn2COC(CO)CO)c(=O)[nH]1 [ganciclovir, 9-[(2-hydroxy-1-hydroxymethyl-ethoxy)methyl]-guanine]
- antiviral activity [3]: highly efficacious against viruses of the herpes family, for example, against herpes simplex and cytomegalovirus

Compound: NCC(=O)OCCOCn1cnc2c(=O)[nH]c(N)nc21 [glycyl ester of acyclovir]
- solubility greater than the solubility of acyclovir itself [7]: about 30 fold
- efficacy in topical treatment of herpes simplex keratitis and iritis [5]: efficacious in the topical treatment of epithelial and stromal herpes simplex keratitis and associated iritis
- amounts of the parent drug in the urine compared with acyclovir (rats): greater amounts of the parent drug in the urine than acyclovir itself

Compound: CC(N)C(=O)OCCOCn1cnc2c(=O)[nH]c(N)nc21 (centres unmarked) [hydrochloride salt of the alanyl ester]
- activity against herpes simplex virus type 1 and type 2 compared with acyclovir [8]: almost as active as acyclovir itself

Compound: NCC(=O)OCCOCn1cnc2c(=O)[nH]c(N)nc21 [hydrochloride salt of the glycyl ester]
- activity against herpes simplex virus type 1 and type 2 compared with acyclovir [8]: almost as active as acyclovir itself

Compound: NCCC(=O)OCCOCn1cnc2c(=O)[nH]c(N)nc21 [hydrochloride salt of the β-alanyl ester]
- activity against herpes simplex virus type 1 and type 2 compared with acyclovir [8]: almost as active as acyclovir itself

Compound: CCC(C)C(N)C(=O)OCCOCn1cnc2c(=O)[nH]c(N)nc21 (centres unmarked) [isoleucine ester of acyclovir]
- absorption from the gut compared with other esters and acyclovir ([9]; oral administration, preferably in the L-form): large increase in absorption from the gut after oral administration

Compound: Nc1nc2c(ncn2COCCOC(=O)CCC(=O)O)c(=O)[nH]1 [sodium salt of the succinyl ester]
- activity against herpes simplex virus type 1 and type 2 compared with acyclovir [8]: almost as active as acyclovir itself

Compound: CC(C)[C@H](N)C(=O)OCCOCn1cnc2c(=O)nc(N)[nH]c21 [valine ester of acyclovir]
- absorption from the gut compared with other esters and acyclovir ([9]; in vivo, po): large increase in absorption from the gut after oral administration
